From patent publication US8828930B2, “Hepatitis C virus NS3 protease inhibitors” (Merck Sharp & Dohme Corp., priority 2009, dated 2014)
Where two headings read alike, the source gives them in different places.

Experiments:
NS3/4A protease gt 1b = NS3/4A protease gt 1b (Hepatitis C virus genotype 1b, UniProt P26663); experiment: HCV NS3 protease time-resolved fluorescence (TRF) assay, NS3/4A inhibitory activity (Ki), gt 1b; type: biochemical; details: NS3/4A enzyme
Experimental: (§1) The HCV NS3 protease inhibitory activity of the present compounds may be tested using assays known in the art. One such assay is HCV NS3 protease time-resolved fluorescence (TRF) assay as described below and in WO 2006/102087. Other examples of such assays are described in, for example, WO 2005/046712. HCV NS3 protease inhibitors, such as those described herein have a Ki less than 50 μM, such as less than 10 μM, and less than 100 nM. Ki is determined by an NS3 protease assay. The assay is performed in a final volume of 100 μl in assay buffer containing 50 mM HEPES, pH 7.5, 150 mM NaCl, 15% glycerol, 0.15% TRITON X-100, 10 mM DTT, and 0.1% PEG 8000. NS3 protease is preincubated with various concentrations of inhibitors in DMSO for 30 minutes. The reaction is initiated by adding the TRF peptide substrate (final concentration 100 nM). NS3 mediated hydrolysis of the substrate is quenched after 1 hour at room temperature with 100 μl of 500 mM MES, pH 5.5. Product fluorescence is detected using either a VICTOR V2 or FUSION fluorophotometer (PERKIN ELMER LIFE AND ANALYTICAL SCIENCES) with excitation at 340 nm and emission at 615 nm with a 400 μs delay. Testing concentrations of different enzyme forms are selected to result in a signal to background ratio (SIB) of 10-30. IC50 values are derived using a standard four-parameter fit to the data. Ki values are derived from IC50 values using the following formula, IC50=Ki(1+[S]/KM), Eqn (1), where [S] is the concentration of substrate peptide in the reaction and KM is the Michaelis constant. See Paola Gallinari et al., Modulation of Hepatitis C Virus NS3 Protease and Helicase Activities through the Interaction with NS4A, 38 BIOCHEM. 5620 (1999); Paola Gallinari et al., Multiple Enzymatic Activities Associated with Recombinant NS3 Protein of Hepatitis C Virus, 72(8) J. VIROLOGY 6758 (1998); Mariana Taliani et al., A Continuous Assay of Hepatitis C Virus Protease Based on Resonance Energy Transfer Depsipeptide Substrates, 240 ANAL. BIOCHEM. 60 (1996).
(§2) This NS3 protease assay was performed in a final volume of 100 μl assay buffer containing 50 mM HEPES, pH 7.5, 150 mM NaCl, 15% glycerol, 0.15% TRITON X-100, 10 mM DTT, and 0.1% PEG 8000. NS3/4A protease was pre-incubated with various concentrations of inhibitors in DMSO for 30 minutes. The reaction was initiated by adding the TRF peptide substrate (final concentration 100 nM). NS3 mediated hydrolysis of the substrate was quenched after 1 hour at RT with 100 μl of 500 mM MES, pH 5.5. Product fluorescence was detected using either a V1CTOR V2 or FUSION fluorophotometer (PERKIN ELMER LIFE AND ANALYTICAL SCIENCES) with excitation at 340 nm and emission at 615 nm with a 400 us delay. Testing concentrations of different enzyme forms were selected to result in a signal to background ratio (SIB) of 10-30. IC50 values were derived using a standard four-parameter fit to the data. K, values are derived from IC50 values using the following formula, IC50=Ki(1+[S]/KM), Eqn (1), where [S] is the concentration of substrate peptide in the reaction and KM is the Michaelis constant. See Paola Gallinari et al., Modulation of Hepatitis C Virus NS3 Protease and Helicase Activities through the Interaction with NS4A, 38 BIOCHEM. 5620 (1999); Paola Gallinari et al., Multiple Enzymatic Activities Associated with Recombinant NS3 Protein of Hepatitis C Virus, 72(8) J. VIROLOGY 6758 (1998); Mariana Milani et al., A Continuous Assay of Hepatitis C Virus Protease Based on Resonance Energy Transfer Depsipeptide Substrates, 240 ANAL. BIOCHEM. 60 (1996); Shi-Shan Mao et al., A time-resolved, internally quenched fluorescence assay to characterize inhibition of hepatitis C virus nonstructural protein 3-4A protease at low enzyme concentrations, 373 ANALYTICAL BIOCHEMISTRY 1 (2008). Measuring Compound Inhibitory Potency (Replicon EC50 (nM))

[1] = target: NS3/4A protease gt 1b A156V (Hepatitis C virus genotype 1b, UniProt P26663, A1182V); experiment: HCV NS3 protease time-resolved fluorescence (TRF) assay, NS3/4A inhibitory activity (Ki), gt 1b A156V; type: biochemical
Experimental: as §1, §2

NS3/4A protease gt 3a = NS3/4A protease gt 3a (Hepatitis C virus genotype 3a, UniProt Q81258); experiment: HCV NS3 protease time-resolved fluorescence (TRF) assay, NS3/4A inhibitory activity (Ki), gt 3a; type: biochemical; details: NS3/4A enzyme
Experimental: as §1, §2

HCV gt 1b replicon = experiment: HCV replicon assay, compound inhibitory potency (Replicon EC50); type: cell-based; details: Hepatitis C virus, GT1B
Experimental: Measurement of inhibition by compounds was performed using the HCV replicon system. Several different replicons encoding different HCV genotypes or mutations were used. In addition, potency measurements were made using different formats of the replicon assay, including different ways of measurements and different plating formats. See Jan M. Vrolijk et al., A replicon-based bioassay for the measurement of interferons in patients with chronic hepatitis C, 110 J. VIROLOGICAL METHODS 201 (2003); Steven S. Carroll et al., Inhibition of Hepatitis C Virus RNA Replication by 2′-Modified Nucleoside Analogs, 278(14) J. BIOLOGICAL CHEMISTRY 11979 (2003). However, the underlying principles are common to all of these determinations, and are outlined below.
Stable neomycin phosphotransferase encoding replicon-harboring cell lines were used, so all cell lines were maintained under G418 selection prior to the assay. In some cases the cell lines encoded a luciferase:NEO FUSION and could be assayed either directly by determination of RNA copy number, or indirectly through measurement of the luciferase activity.
To initiate an assay, replicon cells were plated in the presence of a dilution series of test compound in the absence of G418. Typically, the assays were performed in a 96-well plate format for manual operation, or a 384-well plate in an automated assay. Replicon cells and compound were incubated for 24 to 48 hours, depending on the assay. At the end of the assay, cells are washed free of media and compound and then lysed. For direct quantitation, RNA levels were measured by 32P-probe hybridization and protection, or in a TAQMAN-based assay and normalized to cellular cyclophilin A RNA levels. In some cases, luciferase activity was measured using a conventional luciferase assay. In all cases, EC50 determinations were calculated as a percent of a DMSO control by fitting the data to a four-parameter fit function.

[2] = Plasma and liver concentrations and pharmacokinetics (Rat PK); type: in vivo; parameters: Rat PK 5 mpk AUC: unit not given here; details: for concentration at 4 h: 5 mg/kg, 5 mpk, liver concentration at 4 h; for Rat PK 5 mpk AUC: area under the plasma concentration/time curve
Experimental: Test compounds were dissolved in a suitable dosing vehicle for i.v. administration (e.g., 20%:60%:20% DMSO:PEG400:H2O) or per oral administration (e.g., 10% POLYSORBATE80:90% H2O or 100% PEG400). Animals were administered (n=2 or 3) using a crossover study design for non-rodents. Plasma samples were collected at time points between 2 minutes and 24 hours, and compound levels were determined by RP-LC/MS/MS. Liver samples were collected post-mortem in rat. Liver samples were weighed, homogenized, and diluted using techniques known to those skilled in the art, and compound levels were determined by RP-LC/MS/MS.
Pharmacokinetic parameters were calculated based on non-compartmental analysis (e.g., using WATSON, WINNOLIN). Predose concentrations that were below the limit of quantitation (BLQ) were assigned a value of 0, Standard pharmacokinetic parameters CLp, Vdss, half-life (only for IV), % F, Cmax, Tmax, AUC0-last, AUC0-infinity were calculated. AUC values were calculated using linear trapezoidal method for ascending concentrations and the log trapezoidal method for descending concentrations.

[3] = 10% fetal bovine serum, read-out: gt 1b Replicon EC50 10% FBS
[4] = 50% normal human serum, read-out: gt 1b Replicon EC50 50% NHS

SMILES: COc1ccc2nc3c(nc2c1)O[C@@H]1C[C@H]2C(=O)N[C@]4(C(=O)NS(=O)(=O)C5(C)CC5)C[C@H]4/C=C\CCCCC[C@H](NC(=O)O[C@@H]4CCC[C@H]4CCCCC3)C(=O)N2C1 [Example 2, (3R,20R,24R,28S,34Z,36S,38R,41S)-9-Methoxy-N-[(1-methylcyclopropyl)sulfonyl]-26,40,42-trioxo-4,25-dioxa-1,6,13,27,39-pentaazaheptacyclo[26.13.1.1^3,41.0^5,14.0^7,12.0^20,24.0^36,38]tritetraconta-5,7,9,11,13,34-hexaene-38-carboxamide]
- Ki (NS3/4A protease gt 1b): 0.05 nM
- Ki [1]: 1.1 nM
- Ki (NS3/4A protease gt 3a): 0.48 nM
- EC50 (HCV gt 1b replicon; [3]): 2 nM
- EC50 (HCV gt 1b replicon; [4]): 10 nM
- concentration at 4 h [2]: 43 µM
- Rat PK 5 mpk AUC [2]: 0.55

SMILES: CC1(S(=O)(=O)NC(=O)[C@@]23C[C@H]2/C=C\CCCCC[C@@H]2NC(=O)O[C@@H]4C[C@H]4CCCCCc4nc5ccccc5nc4O[C@@H]4C[C@@H](C(=O)N3)N(C4)C2=O)CC1 [Example 9, (3R,20R,22R,26S,32Z,34S,36R,39S)—N-[(1-Methylcyclopropyl)sulfonyl]-24,38,40-trioxo-4,23-dioxa-1,6,13,25,37-pentaazaheptacyclo[24.13.1.1^3,39.0^5,14.0^7,12.0^20,22.0^34,36]hentetraconta-5,7,9,11,13,32-hexaene-36-carboxamide]
- Ki (NS3/4A protease gt 1b): 0.03 nM
- Ki [1]: 0.8 nM
- Ki (NS3/4A protease gt 3a): 0.52 nM
- EC50 (HCV gt 1b replicon; [3]): 2 nM
- EC50 (HCV gt 1b replicon; [4]): 11 nM
- concentration at 4 h [2]: 20 µM
- Rat PK 5 mpk AUC [2]: 0.26

SMILES: COc1ccc2nc3c(nc2c1)O[C@@H]1C[C@H]2C(=O)N[C@]4(C(=O)NS(=O)(=O)C5CC5)C[C@H]4/C=C\CCCCC[C@H](NC(=O)O[C@]4(C)C[C@H]4CCCCC3)C(=O)N2C1 [Example 5, (3R,20R,22R,26S,32Z,34S,36R,39S)—N-(Cyclopropylsulfonyl)-9-methoxy-22-methyl-24,38,40-trioxo-4,23-dioxa-1,6,13,25,37-pentaazaheptacyclo[24.13.1.1^3,39.0^5,14.0^7,12.0^20,22.0^34,36]hentetraconta-5,7,9,11,13,32-hexaene-36-carboxamide]
- Ki (NS3/4A protease gt 1b): 0.02 nM
- Ki [1]: 0.7 nM
- Ki (NS3/4A protease gt 3a): 0.25 nM
- EC50 (HCV gt 1b replicon; [3]): 1 nM
- EC50 (HCV gt 1b replicon; [4]): 6 nM
- concentration at 4 h [2]: 20 µM
- Rat PK 5 mpk AUC [2]: 0.18

SMILES: CC1(S(=O)(=O)NC(=O)[C@@]23C[C@H]2/C=C\CCCCC[C@@H]2NC(=O)O[C@]4(C)C[C@H]4CCCCCc4nc5ccccc5nc4O[C@@H]4C[C@@H](C(=O)N3)N(C4)C2=O)CC1 [Example 11, (3R,20R,22R,26S,32Z,34S,36R,39S)-22-Methyl-N-[(1-methylcyclopropyl)sulfonyl]-24,38,40-trioxo-4,23-dioxa-1,6,13,25,37-pentaazaheptacyclo[24.13.1.1^3,39.0^5,14.0^7,12.0^20,22.0^34,36]hentetraconta-5,7,9,11,13,32-hexaene-36-carboxamide]
- Ki (NS3/4A protease gt 1b): 0.02 nM
- Ki [1]: 0.5 nM
- Ki (NS3/4A protease gt 3a): 0.37 nM
- EC50 (HCV gt 1b replicon; [3]): 1 nM
- EC50 (HCV gt 1b replicon; [4]): 5 nM
- concentration at 4 h [2]: 4 µM
- Rat PK 5 mpk AUC [2]: 0.07

SMILES: CC1(S(=O)(=O)NC(=O)[C@@]23C[C@H]2/C=C\CCCCC[C@@H]2NC(=O)O[C@@H]4CCC[C@H]4CCCCCc4nc5ccccc5nc4O[C@@H]4C[C@@H](C(=O)N3)N(C4)C2=O)CC1 [Example 7, (3R,20R,24R,28S,34Z,36S,38R,41S)—N-[(1-Methylcyclopropyl)sulfonyl]-26,40,42-trioxo-4,25-dioxa-1,6,13,27,39-pentaazaheptacyclo[26.13.1.1^3,41.0^5,14.0^7,12.0^20,24.0^36,38]tritetraconta-5,7,9,11,13,34-hexaene-38-carboxamide]
- Ki (NS3/4A protease gt 1b): 0.02 nM
- Ki [1]: 1.2 nM
- Ki (NS3/4A protease gt 3a): 0.72 nM
- EC50 (HCV gt 1b replicon; [3]): 2 nM
- EC50 (HCV gt 1b replicon; [4]): 10 nM
- concentration at 4 h [2]: 41 µM
- Rat PK 5 mpk AUC [2]: 1.35
